The values that follow are results of earlier work, collected in patent US8647680B2, “Methods and compositions for treatment of lesioned sites of body vessels” (Abbott Cardiovascular Systems Inc., priority 2006, dated 2014).

The subject of data set [1] is macrophage cells. Particulars: oral administration.

Turning to `N=C(N)NCCC[C@H](N)C(=O)O` [L-arginine], the “apoptosis of macrophage cells” value in data set [1] is “increased apoptosis of macrophage cells”. As for `[N]=O` [nitric oxide], the solubility in water is 2000 to 3000 µM.
